Laboratory results: paper PMC11278016, “Discovery of Prenyltransferase-Guided Hydroxyphenylacetic Acid Derivatives from Marine Fungus Penicillium sp. W21C371” (Marine Drugs, 2024)

How the values were obtained:
[1] = target: Escherichia coli β-glucuronidase (EcGUS) (Escherichia coli, UniProt P05804); experiment: EcGUS inhibition assay; type: biochemical; details: for IC50: EcGUS inhibition, mean ± SD, three independent experiments; for Ki′ (inhibition constant of the enzyme–substrate complex): EcGUS–substrate complex, secondary plot of Y-intercept versus [I]; for type of inhibition: Lineweaver–Burk plots; for Ki: free EcGUS, secondary plot of slope versus [I], Lineweaver–Burk, read-out: Ki (inhibition constant of the enzyme); for inhibition at 100 µM: preliminary screening at a concentration of 100 μM, read-out: relative inhibitory rate
Chain of Escherichia coli β-glucuronidase (EcGUS) (P05804 whole entry): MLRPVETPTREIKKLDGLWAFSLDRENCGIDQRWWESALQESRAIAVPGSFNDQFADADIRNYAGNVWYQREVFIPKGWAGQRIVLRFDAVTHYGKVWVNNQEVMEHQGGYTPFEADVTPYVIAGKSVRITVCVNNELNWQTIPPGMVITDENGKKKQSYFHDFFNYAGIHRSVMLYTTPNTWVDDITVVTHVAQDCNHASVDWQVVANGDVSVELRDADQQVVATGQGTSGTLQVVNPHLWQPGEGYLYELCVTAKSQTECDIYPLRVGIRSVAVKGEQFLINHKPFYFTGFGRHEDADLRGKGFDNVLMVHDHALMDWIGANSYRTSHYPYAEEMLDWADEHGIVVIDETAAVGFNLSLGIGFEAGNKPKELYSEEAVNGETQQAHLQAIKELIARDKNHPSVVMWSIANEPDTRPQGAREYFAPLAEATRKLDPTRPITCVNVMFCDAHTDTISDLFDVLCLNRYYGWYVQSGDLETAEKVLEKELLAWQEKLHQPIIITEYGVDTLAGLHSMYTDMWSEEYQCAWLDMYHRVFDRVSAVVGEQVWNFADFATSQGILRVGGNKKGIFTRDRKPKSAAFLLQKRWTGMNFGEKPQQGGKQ
Method: All isolates 1–17 were evaluated for their in vitro inhibitory activity against EcGUS, a potential target for the treatment of drug-induced gastrointestinal disorders, employing D-saccharic acid 1,4-lactone (DSL) as the positive control. […] In view of the potent inhibitory activity of 2 and 3 against EcGUS, their kinetic mechanisms of inhibition were determined using Lineweaver–Burk plots (Figure 5 and Table S1). The inhibition constants of the enzyme Ki and the enzyme–substrate complex Ki^′ were obtained by secondary plots of “slope versus [I]” and “Y-intercept versus [I]”, respectively. […] As a mixed-type inhibitor of EcGUS, 3 was supposed to bind either the free EcGUS or the EcGUS–substrate complex. […] To the best of our knowledge, 2 and 3 represent the first citridone and ergosterol derivatives with potent EcGUS-inhibitory activity. However, 2 and 3 were obtained in limited amount in the present study, preventing the in vivo evaluation of their EcGUS inhibition activity. The optimization of the fermentation and separation processes with the aim of increasing the yields of 2 and 3 is underway, which may help to accumulate greater amounts of the two compounds for further in-depth pharmacological studies.
Optical rotations were obtained with a Rudolph Research Autopol III automatic polarimeter. IR spectra were recorded on a Thermo Nicolet 6700 FT-IR microscope instrument (FT-IR microscope transmission) in KBr pellets. UV spectra were measured on a TU-1900 spectrometer (Persee, Beijing, China). Meanwhile, 1D and 2D-NMR spectra were obtained at 600 MHz for ^1H and 150 MHz for ^13C on a Bruker Avance 600 spectrometer, with solvent peaks used as references. HRESIMS data were measured on an Agilent-6210-LC/TOF mass spectrometer (Agilent Technologies, Inc., Santa Clara, CA, USA). EcGUS-inhibitory activity was measured spectrophotometrically using a SpectraMax Plus 384 microplate reader (Molecular Devices, San Jose, CA, USA). Column chromatography (CC) was performed on silica gel (SiO2; 200–300 mesh; Qingdao Marine Chemical Co., Ltd.), ODS C-18 gel (50 mm; YMC Co., Ltd., Kyoto, Japan), and MCI CHP20P gel (75–150 μm, Tokyo, Japan). Semi-preparative HPLC was performed on an Cosmosil 5C18-MS-II column (5 μm, 250 × 10 mm) with a Shimadzu LC-20AT system eluting with methanol/water or acetonitrile/water at a flow rate of 3 mL/min. Chiral separation was performed on a Chiralpak AD-H column (5 μm, 4.6 × 250 mm). Thin layer chromatography (TLC) was performed on precoated silica gel GF254 plates (Qingdao Marine Chemical Co., Ltd., Qingdao, China) and visualized by UV light and/or spraying with 10% H2SO4 in 95% EtOH, followed by heating. All solvents used were of analytical grade and obtained from commercially available sources. All reagents used for biological evaluation were obtained from Sigma-Aldrich (St. Louis, MO, USA).
The EcGUS inhibition assay was performed according to the method previously reported, employing DSL as the positive control. The results are presented as means ± SD for three independent experiments.

[2] = system: Candida albicans; design: method as in PMID 19160522; details: against Candida albicans; cited from earlier work
[3] = system: methicillin-resistant Staphylococcus aureus (MRSA); design: method as in PMID 24643052; details: MRSA virulence factor; cited from earlier work

Structure (SMILES): CC1=CC2(C)Oc3c(-c4ccccc4)c[nH]c(=O)c3C2C1C (stereo not shown) [Compound 2, citridone A]
- IC50 [1]: 44.6 ± 0.84 µM
- Ki′ (inhibition constant of the enzyme–substrate complex) [1]: 69.20 µM
- type of inhibition [1]: non-competitive inhibitor
- Ki [1]: 76.3 µM
- Vmax ([1]; inhibitor concentration 0.02 mM): 38.33 ± 2.97 mg/μmol⋅min
- Vmax ([1]; inhibitor concentration 0.04 mM): 32.36 ± 3.11 mg/μmol⋅min
- Vmax ([1]; inhibitor concentration 0.08 mM): 23.58 ± 2.49 mg/μmol⋅min
- inhibition at 100 µM [1]: > 60%
- potentiation of miconazole activity [2]: potentiator of miconazole
- inhibition of staphyloxanthin biosynthesis [3]: inhibit the biosynthesis of staphyloxanthin

Structure (SMILES): CC(=C[C@@H](C)[C@H]1CC[C@@H]2[C@]1(C)CC=C1[C@]23C=C[C@]2(C[C@@H](O)CC[C@]12C)OO3)[C@H](C)C(C)C [Compound 3, 5α,8α-epidioxy-23,24(R)-dimethylcholesta-6,9(11),22-trien-3β-ol]
- IC50 [1]: 21.6 ± 0.76 µM
- Ki′ (inhibition constant of the enzyme–substrate complex) [1]: 48.80 µM
- type of inhibition [1]: mixed-type
- Ki [1]: 89 µM
- Vmax ([1]; inhibitor concentration 0.015 mM): 29.05 ± 1.14 mg/μmol⋅min
- Vmax ([1]; inhibitor concentration 0.030 mM): 22.03 ± 1.06 mg/μmol⋅min
- Vmax ([1]; inhibitor concentration 0.050 mM): 18.22 ± 0.64 mg/μmol⋅min
- inhibition at 100 µM [1]: > 60%

Structure (SMILES): O=C(O)[C@@H](O)[C@H]1OC(=O)[C@H](O)[C@H]1O [DSL, D-saccharic acid 1,4-lactone, reference compound]
- IC50 [1]: 47.9 ± 0.89 µM
